4 compounds from ChEMBL document CHEMBL5316376, “Cyclopentathiophene Carboxamide Derivatives as PAFR Antagonists for Treating Ocular Diseases, Allergies, and Inflammation-Related Disorders” (ACS Med Chem Lett, 2023) can be followed below.

This assay has as its target Platelet-activating factor receptor (Homo sapiens, UniProt P25105). Description: Antagonist activity at human PAFR expressed in HEK293 cells assessed as inhibition of PAF C-16 ligand induced receptor activation preincubated for 90 mins followed by PAF ligand addition and measured after 60 mins by HTRF IP1 assay. The class given is functional, cell-based. Background: Time-resolved FRET reads energy transfer from a long-lived donor to a nearby acceptor.

Sequence of Platelet-activating factor receptor (P25105 whole entry): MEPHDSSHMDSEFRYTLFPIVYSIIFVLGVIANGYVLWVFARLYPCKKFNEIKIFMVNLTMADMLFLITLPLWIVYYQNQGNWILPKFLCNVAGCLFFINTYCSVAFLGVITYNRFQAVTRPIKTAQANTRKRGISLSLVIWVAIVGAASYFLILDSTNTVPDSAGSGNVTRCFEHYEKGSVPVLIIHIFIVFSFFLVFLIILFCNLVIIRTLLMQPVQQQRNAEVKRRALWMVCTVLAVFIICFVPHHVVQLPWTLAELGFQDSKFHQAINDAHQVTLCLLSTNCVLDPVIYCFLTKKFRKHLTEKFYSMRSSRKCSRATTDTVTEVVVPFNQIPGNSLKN

For `Cc1nnc2n1-c1sc3c(c1[C@@H](c1ccccc1Cl)NC2)C[C@@H](C(=O)NC1CCC(F)(F)CC1)C3`, the IC50 worked out at 1.3 nM.

Regarding `Cc1nnc2n1-c1sc3c(c1[C@H](c1ccccc1Cl)NC2)C[C@@H](C(=O)NCc1ccccc1)C3`, the IC50 came out at 1.1 nM.

As for `Cc1nnc2n1-c1sc3c(c1[C@@H](c1ccccc1Cl)NC2)C[C@@H](C(=O)NC1(c2ccc(Cl)cn2)CC1)C3`, the IC50 was 1.3 nM. To `Cc1nnc2n1-c1sc3c(c1[C@@H](c1ccccc1Cl)NC2)C[C@@H](C(=O)NCc1ccc(C(F)(F)F)cc1)C3` belongs 0.4 nM.

One may read the IC50 as the midpoint of a concentration-inhibition curve.
